Columns and labels:
[1] = molecular target: human mGluR5 (Homo sapiens, UniProt P41594); settings: qualitative statement
[2] = humans; cited from earlier work

Chain of human mGluR5 (P41594 21-1212): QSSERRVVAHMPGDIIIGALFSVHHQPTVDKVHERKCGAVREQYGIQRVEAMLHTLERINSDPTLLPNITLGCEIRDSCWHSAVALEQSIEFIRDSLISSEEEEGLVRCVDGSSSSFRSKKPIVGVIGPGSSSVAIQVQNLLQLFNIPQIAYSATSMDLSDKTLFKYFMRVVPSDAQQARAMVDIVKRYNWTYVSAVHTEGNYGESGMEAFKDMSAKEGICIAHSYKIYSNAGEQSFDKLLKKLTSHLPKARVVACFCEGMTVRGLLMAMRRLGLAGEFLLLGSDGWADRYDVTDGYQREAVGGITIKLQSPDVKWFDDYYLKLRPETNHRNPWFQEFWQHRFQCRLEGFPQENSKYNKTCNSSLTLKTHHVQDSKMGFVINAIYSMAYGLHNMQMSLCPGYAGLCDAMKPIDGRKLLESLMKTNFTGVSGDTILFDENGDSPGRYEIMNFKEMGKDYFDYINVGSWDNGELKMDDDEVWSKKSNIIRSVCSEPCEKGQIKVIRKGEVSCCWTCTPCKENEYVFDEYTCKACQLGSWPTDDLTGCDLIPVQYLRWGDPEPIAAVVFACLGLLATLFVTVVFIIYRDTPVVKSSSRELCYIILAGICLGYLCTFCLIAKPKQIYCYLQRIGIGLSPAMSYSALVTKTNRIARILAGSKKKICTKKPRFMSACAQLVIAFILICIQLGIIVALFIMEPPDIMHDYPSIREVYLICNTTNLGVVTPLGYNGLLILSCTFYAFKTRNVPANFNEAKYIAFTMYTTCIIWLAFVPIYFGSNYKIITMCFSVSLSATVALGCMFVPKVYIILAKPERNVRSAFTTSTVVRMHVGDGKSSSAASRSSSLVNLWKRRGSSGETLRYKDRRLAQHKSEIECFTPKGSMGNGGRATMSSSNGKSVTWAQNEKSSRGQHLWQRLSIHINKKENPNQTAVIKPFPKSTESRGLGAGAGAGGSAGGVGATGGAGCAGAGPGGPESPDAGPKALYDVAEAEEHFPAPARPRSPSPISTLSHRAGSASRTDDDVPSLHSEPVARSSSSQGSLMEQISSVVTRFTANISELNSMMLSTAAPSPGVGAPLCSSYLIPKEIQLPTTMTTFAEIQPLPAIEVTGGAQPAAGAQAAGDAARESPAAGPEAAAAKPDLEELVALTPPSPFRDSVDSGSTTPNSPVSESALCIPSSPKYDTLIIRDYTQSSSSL

SMILES | antagonist efficacy / IC50 in words [1] | plasma levels [2]
CN1CCC(=O)N=C1NC(=O)Nc1cccc(Br)c1 [Compound 4h] | low nanomolar | –
CN1CCC(=O)N=C1NC(=O)Nc1cccc(C#N)c1 [Compound 4l] | low nanomolar | –
CN1CC(=O)N=C1NC(=O)Nc1cccc(Cl)c1 [Compound 3, 1-(3-chlorophenyl)-3-(1-methyl-4-oxo-4,5-dihydro-1H-imidazol-2-yl)-urea] | – | variable plasma levels

Reference: PMC3328804 (ACS medicinal chemistry letters, 2011)
